{"source": "patent US12161620B2", "about": "“Devices and methods for facilitating and controlling use of a medication” (priority 2013, dated 2024)", "key": {"[1]": {"settings": "pungency; cited from earlier work"}, "[2]": {"settings": "PubChem; cited from earlier work"}, "[3]": {"settings": "cited from earlier work"}, "[4]": {"settings": "taste detection; cited from earlier work"}, "[5]": {"settings": "cited from earlier work", "remark": "listed apart in the source"}, "[6]": {"assay": "Taste of denatonium saccharide solution before and after activated carbon treatment (Example 11)", "settings": "90 ppm in water", "experimental": "Example 11. In a lab evaluation, 90 ppm denatonium saccharide in water was prepared. To 40 mL samples were added 100 mg and […], respectively, of powdered activated carbon Ecosorb EC-947. The samples were stirred for about 2 days to equilibrate."}, "[7]": {"assay": "Taste of sucrose octaacetate solution before and after lime treatment (Example 10)", "settings": "60 ppm in water"}, "[8]": {"settings": "in vivo; cited from earlier work"}}, "note": "Like-named read-outs stand apart in the source and are kept apart here.", "data": [{"compound": "COc1cc(CNC(=O)CCCC/C=C/C(C)C)ccc1O", "note": "[Capsaicin, capsaicin]", "values": [{"measurement": "threshold of effect", "setting": "[1]", "value": "about 0.02 ppm"}, {"measurement": "LogP", "setting": "[2]", "value": 3.6}, {"measurement": "solubility in alcohol", "setting": "[3]", "value": "soluble in alcohol"}, {"measurement": "water solubility", "setting": "[3]", "value": "~10", "unit": "ppm"}]}, {"compound": "CC[N+](CC)(CC(=O)Nc1c(C)cccc1C)Cc1ccccc1", "note": "[denatonium]", "values": [{"measurement": "level at which detectable", "setting": "[4]", "value": 0.01, "unit": "ppm"}]}, {"compound": "CN(C)c1ccc(C(=C2C=CC(=[N+](C)C)C=C2)c2ccc(N(C)C)cc2)cc1.[Cl-]", "note": "[Gentian Violet]", "values": [{"measurement": "solubility in water", "setting": "[3]", "value": "soluble in water"}]}, {"compound": "O=C(/C=C/C=C/c1ccc2c(c1)OCO2)N1CCCCC1", "note": "[Piperine, piperine]", "values": [{"measurement": "threshold of effect", "setting": "[1]", "value": "about 1.35 ppm"}, {"measurement": "LogP", "setting": "[2]", "value": 3.5}, {"measurement": "solubility in alcohol", "setting": "[3]", "value": "soluble in alcohol"}, {"measurement": "water solubility", "setting": "[3]", "value": 40, "unit": "ppm"}]}, {"compound": "CCN(Cc1cccc(S(=O)(=O)O)c1)c1ccc(C(=C2C=CC(=[N+](CC)Cc3cccc(S(=O)(=O)O)c3)C=C2)c2ccccc2S(=O)(=O)[O-])cc1", "note": "[Brilliant Blue]", "values": [{"measurement": "solubility in water", "setting": "[3]", "value": "water-soluble"}]}, {"compound": "CC(=O)OCC(COC(C)=O)OC(C)=O", "note": "[Triacetin, triacetin]", "values": [{"measurement": "half-life", "setting": "[5]; pH 9", "value": "< 24", "unit": "h"}, {"measurement": "pH around which stable", "setting": "[5]; stable only around this pH", "value": "~4"}]}, {"compound": "CC[N+](CC)(CC(=O)Nc1c(C)cccc1C)Cc1ccccc1.O=C1[N-]S(=O)(=O)c2ccccc21", "note": "[denatonium saccharide]", "values": [{"measurement": "taste of untreated sample", "setting": "[6]", "value": "intensely bitter"}, {"measurement": "duration of taste after administration", "setting": "[6]; untreated, about 0.1 mL on the tongue", "value": "at least two hours"}]}, {"compound": "CC(=O)OC[C@H]1O[C@@](COC(C)=O)(O[C@H]2O[C@H](COC(C)=O)[C@@H](OC(C)=O)[C@H](OC(C)=O)[C@H]2OC(C)=O)[C@@H](OC(C)=O)[C@@H]1OC(C)=O", "note": "[sucrose octaacetate]", "values": [{"measurement": "taste of untreated solution", "setting": "[7]", "value": "intensely bitter"}, {"measurement": "level at which detectable", "setting": "[4]", "value": 10, "unit": "ppm"}, {"measurement": "LogP", "setting": "[2]", "value": "−0.9"}, {"measurement": "solubility in alcohol", "setting": "[3]", "value": "very soluble in alcohols"}, {"measurement": "water solubility", "setting": "[3]", "value": 900, "unit": "ppm"}, {"measurement": "water solubility", "setting": "[3]; listed as Sucrose octaacetate", "value": "about 900 ppm"}, {"measurement": "dose that is not lethal", "setting": "[8]", "value": 5000, "unit": "mg/kg"}]}]}
